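At the GI50, growth is halved. TGI is the concentration that stops growth completely.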
Key:
Experiment in all cases: inhibition of tumour cell growth, NCI panel, 384-well format
TK-10 renal = tested on: TK-10 renal
NCI-H23 lung = tested on: NCI-H23 lung
ACHN renal = tested on: ACHN renal
IGROV1 ovarian = tested on: IGROV1 ovarian
MCF7 breast = tested on: MCF7 breast
NCI-H226 lung = tested on: NCI-H226 lung
SK-MEL-28 melanoma = tested on: SK-MEL-28 melanoma
786-0 renal = tested on: 786-0 renal
OVCAR-4 ovarian = tested on: OVCAR-4 ovarian
MALME-3M melanoma = tested on: MALME-3M melanoma
MDA-MB-468 breast = tested on: MDA-MB-468 breast
CCRF-CEM leukemia = tested on: CCRF-CEM leukemia
SF-268 CNS = tested on: SF-268 CNS
NCI-H522 lung = tested on: NCI-H522 lung
HCT-116 colon = tested on: HCT-116 colon
SF-539 CNS = tested on: SF-539 CNS
HCC-2998 colon = tested on: HCC-2998 colon
SR leukemia = tested on: SR leukemia
T-47D breast = tested on: T-47D breast
SW-620 colon = tested on: SW-620 colon
M14 melanoma = tested on: M14 melanoma
KM12 colon = tested on: KM12 colon
BT-549 breast = tested on: BT-549 breast
HCT-15 colon = tested on: HCT-15 colon
SN12C renal = tested on: SN12C renal
HOP-62 NSCLC = tested on: HOP-62 NSCLC
UACC-257 melanoma = tested on: UACC-257 melanoma
NCI-H460 NSCLC = tested on: NCI-H460 NSCLC
NCI/ADR-RES ovarian = tested on: NCI/ADR-RES ovarian
SNB-19 CNS = tested on: SNB-19 CNS
U251 glioblastoma = tested on: U251 glioblastoma
K-562 leukemia = tested on: K-562 leukemia
OVCAR-5 ovarian = tested on: OVCAR-5 ovarian
SK-MEL-5 melanoma = tested on: SK-MEL-5 melanoma
HS 578T breast = tested on: HS 578T breast
LOX IMVI melanoma = tested on: LOX IMVI melanoma
MOLT-4 leukemia = tested on: MOLT-4 leukemia
OVCAR-8 ovarian = tested on: OVCAR-8 ovarian
MDA-MB-231 breast = tested on: MDA-MB-231 breast
CAKI-1 renal = tested on: CAKI-1 renal
COLO 205 colon = tested on: COLO 205 colon
A549 NSCLC = tested on: A549 NSCLC
UACC-62 melanoma = tested on: UACC-62 melanoma
RXF 393 renal = tested on: RXF 393 renal
NCI-H322M lung = tested on: NCI-H322M lung
HOP-92 NSCLC = tested on: HOP-92 NSCLC
HL-60(TB) leukemia = tested on: HL-60(TB) leukemia

NS(=O)(=O)NCCNc1nonc1C(=Nc1ccc(F)c(Br)c1)NO
GI50 (TK-10 renal): 28.8 µM
TGI (TK-10 renal): > 89.2 µM
GI50 (NCI-H23 lung): 27.1 µM
TGI (NCI-H23 lung): > 100 µM
GI50 (ACHN renal): 36.6 µM
TGI (ACHN renal): > 100 µM
GI50 (IGROV1 ovarian): 37.4 µM
TGI (IGROV1 ovarian): > 100 µM
GI50 (MCF7 breast): 38.8 µM
TGI (MCF7 breast): > 100 µM
GI50 (NCI-H226 lung): 20.8 µM
TGI (NCI-H226 lung): > 84.4 µM
GI50 (SK-MEL-28 melanoma): 42.7 µM
TGI (SK-MEL-28 melanoma): > 100 µM
GI50 ([…]-0 renal): 35.1 µM
TGI (786-0 renal): > 100 µM
GI50 (OVCAR-4 ovarian): 21.4 µM
TGI (OVCAR-4 ovarian): 72.5 µM
GI50 (MALME-3M melanoma): 30.5 µM
TGI (MALME-3M melanoma): > 100 µM
GI50 (MDA-MB-468 breast): 14.6 µM
TGI (MDA-MB-468 breast): 33.1 µM
GI50 (CCRF-CEM leukemia): 17.6 µM
TGI (CCRF-CEM leukemia): 35.3 µM
GI50 (SF-268 CNS): 33.9 µM
TGI (SF-268 CNS): > 100 µM
GI50 (NCI-H522 lung): 16.5 µM
TGI (NCI-H522 lung): 47.7 µM
GI50 (HCT-116 colon): 36.6 µM
TGI (HCT-116 colon): > 100 µM
TGI (SF-539 CNS): > 100 µM
GI50 (HCC-2998 colon): 22.5 µM
TGI (HCC-2998 colon): 51.7 µM
GI50 (SR leukemia): 14.6 µM
TGI (SR leukemia): 28.9 µM
GI50 (T-47D breast): 23.9 µM
TGI (T-47D breast): > 74.5 µM
GI50 (SW-620 colon): 42.2 µM
TGI (SW-620 colon): > 100 µM
GI50 (M14 melanoma): 38.9 µM
TGI (M14 melanoma): > 100 µM
GI50 (KM12 colon): 8.9 µM
TGI (KM12 colon): > 100 µM
GI50 (BT-549 breast): 5.97 µM
TGI (BT-549 breast): > 56.3 µM
GI50 (HCT-15 colon): 51.6 µM
TGI (HCT-15 colon): > 100 µM
GI50 (SN12C renal): 35.2 µM
TGI (SN12C renal): > 100 µM
GI50 (HOP-62 NSCLC): 39.9 µM
TGI (HOP-62 NSCLC): > 100 µM
GI50 (UACC-257 melanoma): 28.7 µM
TGI (UACC-257 melanoma): > 82.6 µM
GI50 (NCI-H460 NSCLC): 27.4 µM
TGI (NCI-H460 NSCLC): 73 µM
GI50 (NCI/ADR-RES ovarian): > 100 µM
TGI (NCI/ADR-RES ovarian): > 100 µM
GI50 (SNB-19 CNS): 42.1 µM
TGI (SNB-19 CNS): > 100 µM
GI50 (U251 glioblastoma): 33.9 µM
TGI (U251 glioblastoma): > 100 µM
GI50 (K-562 leukemia): 27.8 µM
TGI (K-562 leukemia): > 100 µM
GI50 (OVCAR-5 ovarian): 49.9 µM
TGI (OVCAR-5 ovarian): > 100 µM
GI50 (SK-MEL-5 melanoma): 35.9 µM
TGI (SK-MEL-5 melanoma): > 92.6 µM
GI50 (HS 578T breast): 25.3 µM
TGI (HS 578T breast): 87.4 µM
GI50 (LOX IMVI melanoma): 34.5 µM
TGI (LOX IMVI melanoma): > 100 µM
GI50 (MOLT-4 leukemia): 15.9 µM
TGI (MOLT-4 leukemia): 29.8 µM
GI50 (OVCAR-8 ovarian): 46.9 µM
TGI (OVCAR-8 ovarian): > 100 µM
GI50 (MDA-MB-231 breast): 67.2 µM
TGI (MDA-MB-231 breast): > 100 µM
GI50 (CAKI-1 renal): 5.66 µM
TGI (CAKI-1 renal): > 100 µM
GI50 (COLO 205 colon): 21.8 µM
TGI (COLO 205 colon): > 60.6 µM
GI50 (A549 NSCLC): 30.9 µM
TGI (A549 NSCLC): > 100 µM
GI50 (UACC-62 melanoma): 24.5 µM
TGI (UACC-62 melanoma): > 100 µM
GI50 (RXF 393 renal): 4.11 µM
TGI (RXF 393 renal): > 31.6 µM
GI50 (NCI-H322M lung): 34.2 µM
TGI (NCI-H322M lung): > 100 µM
GI50 (HOP-92 NSCLC): 29.6 µM
TGI (HOP-92 NSCLC): > 89.5 µM
GI50 (HL-60(TB) leukemia): 18.9 µM
TGI (HL-60(TB) leukemia): 33.2 µM

CC1(N)CCN(c2cnc(-c3cccc(Cl)c3Cl)c(N)n2)CC1
GI50 (TK-10 renal): 8.25 µM
TGI (TK-10 renal): 25 µM
GI50 (NCI-H23 lung): 3.66 µM
TGI (NCI-H23 lung): 23.4 µM
GI50 (ACHN renal): 10.5 µM
TGI (ACHN renal): 60.6 µM
GI50 (IGROV1 ovarian): 8.4 µM
TGI (IGROV1 ovarian): 27 µM
GI50 (MCF7 breast): 15.5 µM
TGI (MCF7 breast): 29.7 µM
GI50 (NCI-H226 lung): 8.68 µM
TGI (NCI-H226 lung): 46.6 µM
GI50 (SK-MEL-28 melanoma): 16.7 µM
TGI (SK-MEL-28 melanoma): 30.5 µM
GI50 ([…]-0 renal): 11.1 µM
TGI (786-0 renal): 24 µM
GI50 (OVCAR-4 ovarian): 14 µM
TGI (OVCAR-4 ovarian): > 77.1 µM
GI50 (MALME-3M melanoma): 14.8 µM
TGI (MALME-3M melanoma): 28 µM
GI50 (MDA-MB-468 breast): 0.898 µM
TGI (MDA-MB-468 breast): 5.96 µM
GI50 (CCRF-CEM leukemia): 17 µM
TGI (CCRF-CEM leukemia): 31.2 µM
GI50 (SF-268 CNS): 18.6 µM
TGI (SF-268 CNS): 53.4 µM
GI50 (NCI-H522 lung): 2.64 µM
TGI (NCI-H522 lung): 19.2 µM
GI50 (HCT-116 colon): 17.2 µM
TGI (HCT-116 colon): 32.1 µM
GI50 (SF-539 CNS): 13.9 µM
TGI (SF-539 CNS): 27.7 µM
GI50 (HCC-2998 colon): 16 µM
TGI (HCC-2998 colon): 29.8 µM
GI50 (SR leukemia): 7.14 µM
TGI (SR leukemia): 20.3 µM
GI50 (T-47D breast): 13.3 µM
TGI (T-47D breast): 27.9 µM
GI50 (SW-620 colon): 7.58 µM
TGI (SW-620 colon): > 50.4 µM
GI50 (M14 melanoma): 17.6 µM
TGI (M14 melanoma): 31.5 µM
GI50 (KM12 colon): 6.2 µM
TGI (KM12 colon): 20 µM
GI50 (BT-549 breast): 10.6 µM
TGI (BT-549 breast): 24 µM
GI50 (HCT-15 colon): 16.6 µM
TGI (HCT-15 colon): 33.5 µM
GI50 (SN12C renal): 5.63 µM
TGI (SN12C renal): 42.7 µM
GI50 (HOP-62 NSCLC): 24.3 µM
TGI (HOP-62 NSCLC): > 74 µM
GI50 (UACC-257 melanoma): 16.4 µM
TGI (UACC-257 melanoma): 30.1 µM
GI50 (NCI-H460 NSCLC): 18.1 µM
TGI (NCI-H460 NSCLC): 33.3 µM
GI50 (NCI/ADR-RES ovarian): 17.9 µM
TGI (NCI/ADR-RES ovarian): > 71.1 µM
GI50 (SNB-19 CNS): 11.9 µM
TGI (SNB-19 CNS): > 74.3 µM
GI50 (U251 glioblastoma): 13.5 µM
TGI (U251 glioblastoma): 27.4 µM
GI50 (K-562 leukemia): 0.783 µM
TGI (K-562 leukemia): 14.4 µM
GI50 (OVCAR-5 ovarian): 15.7 µM
TGI (OVCAR-5 ovarian): 47.6 µM
GI50 (SK-MEL-5 melanoma): 15.3 µM
TGI (SK-MEL-5 melanoma): 28.7 µM
GI50 (HS 578T breast): 13.4 µM
TGI (HS 578T breast): 27.2 µM
GI50 (LOX IMVI melanoma): 17.1 µM
TGI (LOX IMVI melanoma): 31 µM
GI50 (MOLT-4 leukemia): 16.3 µM
TGI (MOLT-4 leukemia): 30.7 µM
GI50 (OVCAR-8 ovarian): 27.9 µM
TGI (OVCAR-8 ovarian): > 100 µM
GI50 (MDA-MB-231 breast): 20.2 µM
TGI (MDA-MB-231 breast): 49.6 µM
GI50 (CAKI-1 renal): 2.74 µM
TGI (CAKI-1 renal): 16.9 µM
GI50 (COLO 205 colon): 21.3 µM
TGI (COLO 205 colon): 41.5 µM
GI50 (A549 NSCLC): 30.1 µM
TGI (A549 NSCLC): > 100 µM
GI50 (UACC-62 melanoma): 18.7 µM
TGI (UACC-62 melanoma): 32.9 µM
GI50 (RXF 393 renal): 12.2 µM
TGI (RXF 393 renal): 25.5 µM
GI50 (NCI-H322M lung): 3.73 µM
TGI (NCI-H322M lung): 47.2 µM
GI50 (HOP-92 NSCLC): 1.02 µM
TGI (HOP-92 NSCLC): 8.17 µM
GI50 (HL-60(TB) leukemia): 23.4 µM
TGI (HL-60(TB) leukemia): 38.1 µM
